Reference: patent EP4463162B1, “CONNEXIN 43 FOR USE IN TREATING BRCA1/2-MUTATED CANCER” (Fundación Profesor Novoa Santos, priority 2022, dated 2023)

Assays:
γH2AX (p-Ser139) = assay: Western blot and immunofluorescence against γH2AX; format: cell-based, human; settings: Cx43_HCC1937, 50/100 µM olaparib, 96 h, vs basal condition and same treatments in EV_HCC1937
Description: (§1) 2 000-10 000 cells were plated on glass coverslips (Thermo Fisher Scientific) previously coated with poly-D-lysine hydrobromide (Sigma-Aldrich) and cultured until they were approximately 80 % confluent. They were washed with PBS, fixed with 4 % paraformaldehyde (PFA, Sigma-Aldrich) in PBS for 15 min at room temperature and rinsed twice with PBS. Next, cells were incubated with 0.1 M glycine (Sigma-Aldrich) in distilled water to quench PFA for 10 min at room temperature, and then their membranes were permeabilized with 0.2 % Triton X-100 (Sigma-Aldrich) in PBS for 10 min at room temperature. After two 5 min PBS washes, potential nonspecific antibody binding sites were blocked with 1 % bovine serum albumin (BSA; Sigma-Aldrich) diluted in PBST (PBS+0.1 % Tween 20; Sigma-Aldrich) for 30 min at room temperature. Cells were incubated overnight at 4 °C in the dark with primary antibody (see references in Table 3) diluted in 1 % BSA in PBST. […]
(§2) Protein extracts were mixed with loading buffer, which consisted of 10 % (v/v) β-mercaptoethanol (Sigma-Aldrich), 10 % SDS, 50 % (v/v) glycerol, 200 mM Tris-HCl pH 6.8 and 0.1 % bromophenol blue (Sigma-Aldrich). […] Ponceau staining and western blot images were analysed and their band intensities quantitated with Image J software.

[1] = test system: control empty vector (EV) HCC1937 cells; assay: 48 h olaparib dose-response curve, cell viability; format: cell-based; settings: Homo sapiens, HCC1937, 48 h
[2] = test system: poly(ADP-ribose) (PAR) polymer; assay: Global protein PARylation, western blot and immunofluorescence; format: cell-based, human; settings: 48 and 96 h, western blot
Description: as §1
as §2, with “software. […]” for “software.”

With O=C(c1cc(Cc2n[nH]c(=O)c3ccccc23)ccc1F)N1CCN(C(=O)C2CC2)CC1 [Olaparib, olaparib] the “γH2AX (p-Ser139)” value (γH2AX (p-Ser139)) was “significant γH2AX increase”, the IC50 [1] was 602 µM and the PAR levels ([2]; Cx43_HCC1937, 50/100 µM olaparib) was “decreased”. For the same molecule, the PAR levels ([2]; EV_HCC1937, 50/100 µM olaparib) was “rose”.
